Measurements as given in paper PMC5086383, “Isolation and Physicochemical Characterization of Laccase from Ganoderma lucidum-CDBT1 Isolated from Its Native Habitat in Nepal” (BioMed Research International, 2016).

Test system: T1, laccase isozyme 3 (purified laccase from Ganoderma lucidum-CDBT1)
T1 construct: native secreted enzyme purified from culture medium (ammonium sulfate, DEAE Sepharose); 43 kDa by SDS-PAGE
Assay: ABTS oxidation at […] nm, Lineweaver-Burk
Type: biochemical
Conditions: 0.1 M sodium acetate pH 5.0, room temperature (~25°C); ABTS 0.01 to 10 mM; co-substrate O2

Structure (SMILES): CCn1c(=NN=c2sc3cc(S(=O)(=O)O)ccc3n2CC)sc2cc(S(=O)(=O)O)ccc21 [ABTS, 2,2′-azino-bis(3-ethylbenzothiazoline-6-sulfonic acid)]
- Km: 110 µM
